From a compilation of properties of binary mixtures (doi:10.1007/s10953-017-0608-9)
Several values for one entry are separate records, joined by “and”; a condition that tells them apart may be missing. Equal entries are not always repeated.

Assay: xn = mol fraction of the nth substance listed
Conditions: 101 kPa

SMILES: CCCCCCCCn1cc[n+](C)c1.[Br-] + O
- electrical conductivity (288.15 K, x1 = 0.0001): 0.029 S/m and 0.0557 S/m
- electrical conductivity (288.15 K, x1 = 0.0002): 0.0822 S/m
- viscosity (288.15 K, x1 = 0.0002): 1.158 mPa·s
- electrical conductivity (298.15 K, x1 = 0.0001): 0.0353 S/m and 0.0696 S/m
- viscosity (298.15 K, x1 = 0.0001): 0.896 mPa·s
- electrical conductivity (308.15 K, x1 = 0.0001): 0.0426 S/m and 0.0846 S/m
- viscosity (308.15 K, x1 = 0.0001): 0.725 mPa·s and 0.73 mPa·s
